What was measured:
Format in all cases: cell-based
MDA−MB−231 spheroids = test: 3D bioprinted spheroid cytotoxicity (WST-1); details: 72 h, mean ± SEM
Source text: (§1) To evaluate the cytotoxic effect of platinum(II) and (IV) complexes in 3D cell culture, MDA−MB−231 or HT29 cells were used to bioprint networks or spheroids with the non-contact drop-on-demand 3D RASTRUM bioprinter (Inventia Life Science, Alexandria, NSW, Australia). The 3D cultures use two constituents: bioink and activator. Cell pellets (2 × 10^6 cells) were resuspended in an activator reagent which forms an instant gel after its addition to the bioink by the bioprinter. The 3D large plug cell model with polyethylene glycol bioinks formulated to mimic the properties of in vivo tissue were chosen as follows. Matrix Px02.31 (activator F177 and bioink F242 with RGD: Fibronectin) was used for MDA−MB−231 3D embedded networks, Px02.00 (activator F177 and bioink F119 without RGD additives, Table S1) was used for MDA−MB−231 spheroids and matrix #Px02.09 (activator F177 and bioink F236 with adhesion peptides including, RGD: Fibronectin, and GFOGER: collagen type I to recapitulate rich in vivo tissue extracellular environments) was used for HT29 spheroids (Inventia Life Science) (Table S1). Each cell line was printed at 10,000 cells/well and loaded with the bioink fluids into the selected printer cartridge. After the automated priming of all fluids into the printer nozzles, each cell line was individually printed on tissue culture plates (Nunc^TM MicroWell^TM 96-Well, Nunclon Delta-Treated, Flat-Bottom Microplate, ThermoFisher #167008), with RASTRUM creating the 3D Large Plug across the 96-well plate. Following completion of the print run, 200 μL DMEM culture medium was added to each well using multichannel pipettes. The plate was then incubated for 7 days (humidified incubator with 5% CO2 at 37 °C) for compact and homogenous spheroid formation before the cytotoxicity assay. When the spheroids developed, post-7-day incubation, media was removed and replaced with 100 µL DMEM. […] Cytotoxicity was then assessed using the WST-1 assay as previously described in Section 2.3.

HT29 spheroids = test: 3D bioprinted spheroid cytotoxicity (WST-1); details: 72 h, mean ± SEM
Source text: as §1

MDA−MB−231 cells = test: Western blot protein expression; details: MDA−MB−231, IC50, 72 h
Protocol: (§2) Protein extraction was then performed on ice. Media were collected in Eppendorf tubes, and centrifuged at 500× g for 5 min at 4 °C. Meanwhile, 200 µL of lysis RIPA buffer, made up of 150 mM NaCl, 50 mM Tris-HCl, pH 8.0, 0.1% Triton X-100, 0.5% sodium deoxycholate, 0.1% SDS and 1 mM sodium orthovanadate, was added to each well, the cells were scrapped into the buffer, and added to the media-derived pellets. The tubes were placed on the shaker for 10 min at 4 °C. Then, cell extracts were centrifuged at 12,000× g for 15 min at 4 °C, and the supernatants (containing the proteins) were collected. The Bio-Rad-DC protein assay (Bio-Rad, Hercules, CA, USA) was used to assess protein content. Laemmli protein sample buffer (4×) with β-mercaptoethanol (9%) was used to prepare a final protein concentration of 20 µg. The samples were then heated at 100 °C for 5 min. A final volume of 30 µL of each sample was added per well and subjected to SDS-PAGE using Bolt 4–12% Bis-Tris gel (Thermo Fisher, Eugene, OR, USA) at 80 V for 30 min and then 120 V for 60 min with PageRuler™ Prestained Protein or SeeBlue Prestained Protein Ladder (Thermo Fisher, Eugene, OR, USA). Proteins were subsequently transferred to a 0.2 µm PVDF membrane (Amersham, Cytiya) using a semi-dry blot transfer. The membrane was then blocked in 5% BSA in TBST, for 1 h and probed overnight at 4 °C with primary antibodies against several cell proliferation, apoptotic, anti-apoptotic, microtubule and autophagic protein markers listed in Table S7 as per the manufacturer’s protocol. The primary antibody was then removed, washed three times for 10 min with TBST and then membranes were treated with either mouse or rabbit HRP-coupled secondary antibodies (1/3000) for 1 h and 30 min. Protein band detection was then performed using the chemiluminescence ECL kit (Thermo Fisher, Eugene, OR, USA). Blot images were obtained using the Odyssey® FC imaging system (LI-COR Biosciences, Lincoln, NE, USA) and band intensities were quantified relatively to glyceraldehyde-3-phosphate dehydrogenase (GAPDH) and then normalised each replicate gel to its corresponding no treatment control using the ImageJ v1.53t software (National Institutes of Health, Bethesda, MD, USA). Each marker results from the same experiment or parallel experiment where the gels were processed in parallel. Three independent experiments per marker were conducted.

HT29 cells = test: Western blot protein expression; details: HT29, IC50, 72 h
Protocol: as §2

A2780 = test: WST-1 cytotoxicity, 72 h
Protocol: Cells were seeded in 96-well flat-bottom culture plates at a concentration of 1000 cells per well. […] After 72 h, the medium was removed and replaced with new medium. The cell viability reagent WST-1 (10 µL, Roche Diagnostics, Indianapolis, IN, USA) was added to each well. After an hour, the absorbance was measured at 450 nm using a versatile microplate reader (Bio-strategy, Campbellfield, VIC, Australia). Three separate experiments were performed, each with n = 3 replicates. GraphPad prism 10 was used to calculate apparent IC50 values using the nonlinear regression model Y = Bottom + (Top-Bottom)/(1 + 10^(X-LogIC50)) where Top and bottom are plateaus in the y-axis (% survival).

[1] = representative blot Figure S30G
[2] = representative blot Figure S30H

Compound: Cc1c(C)c2cccnc2c2ncccc12.N[C@H]1CCCC[C@@H]1N.O=[N+]([O-])[O-].O=[N+]([O-])[O-].[Pt+2] [Pt^II56MESS, [Pt(5,6-dimethyl-1,10-phenanthroline)(1S,2S-diaminocyclohexane)](NO3)2]
- IC50 (MDA−MB−231 spheroids): 2490 ± 1980 nM
- IC50 (HT29 spheroids): 990 ± 1290 nM
- β-actin/GAPDH normalized to control (1) (MDA−MB−231 cells; representative blot Figure S24A): 0.5956
- β-tubulin/GAPDH normalized to control (1) (MDA−MB−231 cells; representative blot Figure S24B): 0.5978
- α-tubulin/GAPDH normalized to control (1) (MDA−MB−231 cells; representative blot Figure S24C): 0.7887
- p-AKT/AKT/GAPDH normalized to control (1) (MDA−MB−231 cells; representative blot Figure S25A): 0.5229
- p-ERK/ERK/GAPDH normalized to control (1) (MDA−MB−231 cells; representative blot Figure S25B): 0.06081
- p53/GAPDH normalized to control (1) (MDA−MB−231 cells; representative blot Figure S25C): 0.6187
- p21/GAPDH normalized to control (1) (MDA−MB−231 cells; representative blot Figure S25D): 2.6
- Bax/GAPDH normalized to control (1) (MDA−MB−231 cells; representative blot Figure S26A): 1.276
- Bcl2/GAPDH normalized to control (1) (MDA−MB−231 cells; representative blot Figure S26B): 0.6846
- Cytochrome C/GAPDH normalized to control (1) (MDA−MB−231 cells; representative blot Figure S26C): 3.109
- Procaspase 8/GAPDH normalized to control (1) (MDA−MB−231 cells; representative blot Figure S26D): 0.3584
- Cleaved BID/GAPDH normalized to control (1) (MDA−MB−231 cells; representative blot Figure S26E): 14.74
- Procaspase 9/GAPDH normalized to control (1) (MDA−MB−231 cells; representative blot Figure S26F): 0.4755
- Procaspase 3/GAPDH normalized to control (1) (MDA−MB−231 cells; representative blot Figure S26G): 0.4243
- PARP-1/GAPDH normalized to control (1) (MDA−MB−231 cells; representative blot Figure S26H): 0.634
- Beclin1/GAPDH normalized to control (1) (MDA−MB−231 cells; representative blot Figure S27A): 3.15
- ATG5/GAPDH normalized to control (1) (MDA−MB−231 cells; representative blot Figure S27B): 0.4012
- ATG16L1/GAPDH normalized to control (1) (MDA−MB−231 cells; representative blot Figure S27C): 0.5726
- ATG9A/GAPDH normalized to control (1) (MDA−MB−231 cells; representative blot Figure S27D): 0.2848
- ATG4B/GAPDH normalized to control (1) (MDA−MB−231 cells; representative blot Figure S27E): 2.107
- LC3B/GAPDH normalized to control (1) (MDA−MB−231 cells; representative blot Figure S27F): 0.8478
- β-actin/GAPDH normalized to control (1) (HT29 cells; representative blot Figure S28A): 0.4943
- β-tubulin/GAPDH normalized to control (1) (HT29 cells; representative blot Figure S28B): 0.2182
- α-tubulin/GAPDH normalized to control (1) (HT29 cells; representative blot Figure S28C): 0.04906
- p-AKT/AKT/GAPDH normalized to control (1) (HT29 cells; representative blot Figure S29A): 0.5359
- p-ERK/ERK/GAPDH normalized to control (1) (HT29 cells; representative blot Figure S29B): 0.8325
- p53/GAPDH normalized to control (1) (HT29 cells; representative blot Figure S29C): 1.014
- p21/GAPDH normalized to control (1) (HT29 cells; representative blot Figure S29D): 1.281
- Bax/GAPDH normalized to control (1) (HT29 cells; representative blot Figure S30A): 2.693
- Bcl2/GAPDH normalized to control (1) (HT29 cells; representative blot Figure S30B): 0.04576
- Cyt C/GAPDH normalized to control (1) (HT29 cells; representative blot Figure S30C): 6.706
- Procaspase 8/GAPDH normalized to control (1) (HT29 cells; representative blot Figure S30D): 0.2505
- Cleaved BID/GAPDH normalized to control (1) (HT29 cells; representative blot Figure S30E): 2.821
- Procaspase 9/GAPDH normalized to control (1) (HT29 cells; representative blot Figure S30F): 0.2717
- Cleaved caspase 3/GAPDH normalized to control (1) (HT29 cells; [1]): 5.099
- Procaspase 3/GAPDH normalized to control (1) (HT29 cells; [1]): 0.8936
- Cleaved PARP-1/GAPDH normalized to control (1) (HT29 cells; [2]): 7.064
- PARP-1/GAPDH normalized to control (1) (HT29 cells; [2]): 0.317
- Beclin1/GAPDH normalized to control (1) (HT29 cells; representative blot Figure S31A): 5.632
- ATG5/GAPDH normalized to control (1) (HT29 cells; representative blot Figure S31B): 0.6185
- ATG16L1/GAPDH normalized to control (1) (HT29 cells; representative blot Figure S31C): 1.309
- ATG9A/GAPDH normalized to control (1) (HT29 cells; representative blot Figure S31D): 1.516
- ATG4B/GAPDH normalized to control (1) (HT29 cells; representative blot Figure S31E): 0.7106
- LC3B/GAPDH normalized to control (1) (HT29 cells; representative blot Figure S31F): 1.044
- potency relative to cisplatin (A2780; A2780, 72 h): 113 fold
- IC50 (A2780; A2780, 72 h, mean ± SEM): 190 nM
- Selective cytotoxicity index (SCI) (A2780; IC50 MCF10A/IC50 A2780): 2.16

Source: PMC11274883, “Anticancer Effect of Pt^[sequence], Pt^II5MESS, Pt^II56MESS and Their Platinum(IV)-Dihydroxy Derivatives against Triple-Negative Breast Cancer and Cisplatin-Resistant Colorectal Cancer” (Cancers, 2024)
